Data taken from US8916686B2, “TDF-related compounds and analogs thereof” (Thrasos Innovation, Inc., priority 2004, dated 2014).

Legend:
Smad1 = Smad1 nuclear translocation in HK-2 cells (immunofluorescence); type: cell-based, human; conditions: 1.3 uM and 33 uM compound
Experimental: Phosphorylation and nuclear translocation of Smads occurs following the activation of Type I and Type II receptors and subsequent signal transduction to intracellular Smad targets. Phosphorylation and nuclear translocation of R-Smad in HK-2 cells by TDFRP compounds is assayed by immuno-fluorescent microscopy methods, using anti-phospho Smad 1/5 antibodies according to the procedure of H Aoki, M Fujii, T Imamura, K Yagi, K Takehara, M Kato and K Miyazono. J. of Cell Sci. 114, 1483-1489, 2001) and by Western blot analysis (FIG. 15A-FIG. 15C).
HK2, human proximal tubule cells are incubated in culture medium alone or exposed TDFRP or control compounds for one hour ten minutes at 37 degree C. BMP-7 served as a positive control in the assay. Each well is rinsed with 1 mL prewarmed medium. 1 mL per well of cold Acetone/Methanol mix (1:1) is added and incubated for 2 minutes at room temperature to fix the cells. Wells are washed with 1 mL of cold PBS and blocked with 1 mL blocking buffer (3% BSA, 1% goat serum in PBS) for 7 minutes. Wells are aspirated without disturbing the cells, and 500 uL/well primary antibody is added (anti-phospho-Smad 1) at 0.056 ug/mL concentration in 3% BSA in PBS (no goat serum). Cells are incubated overnight at 4 degrees C. […]

[1] = test system: CD1 mouse model of streptozotocin (STZ)-induced diabetic nephropathy; assay: Streptozotocin (STZ)-induced diabetic nephropathy; type: in vivo; conditions: ip 5 mg/kg/24 hr; after one month treatment
Experimental: Reversal of interstitial fibrosis by Thrasos compound SEQ ID NO 45 in a CD1 mouse model of streptozotocin (STZ)-induced diabetic nephropathy. FIG. 7A. schematic of the experimental protocol, FIG. 7B: Kidney section of vehicle-treated animal, FIG. 7C: Kidney section of animal received ip administration of Thrasos compound (5 mg/kg/24 hr). Sac: After one month treatment.

[2] = test system: mouse model of nephrotoxic serum nephritis; assay: Nephrotoxic serum nephritis (NTN) model of chronic renal injury; type: in vivo; conditions: oral 5 mg/kg/24 hr
Experimental: Attenuation of renal fibrosis progression by Thrasos compound in a mouse model of nephrotoxic serum nephritis. FIG. 8A: Kidney section of vehicle-treated animal, FIG. 8B: Kidney section of animal received oral administration of compound SEQ ID NO 45 (5 mg/kg/24 hr).
Nephrotoxic serum nephritis (NTN) is a model of progressive chronic renal injury. Mice given injections of nephrotoxic serum (NTS) develop glomerulonephritis, leading to tubulointerstitial disease associated with EMT, and ultimately renal fibrosis, over a period of about six weeks. […] In these studies, BMP-7 was able to restore expression of E-cadherin proteins in previously damaged tubules. […] For a review of the above see, Zeisberg et al., Nature Medicine, 9; 7 pp 964-968, (2003) and Kalluri et al., J. Clin Investigation 112:1776-1784 (2003).

[3] = test system: renal toxic effects of cisplatin in the rat; assay: Cisplatin renal toxicity in male Sprague-Dawley rat; type: in vivo
Experimental: Compound (SEQ ID #45) was tested in male Sprague-Dawley rats (250 gm to 300 gm) to establish the dose range and the extent to which the compound is able to prophylactically and therapeutically ameliorate the renal toxic effects of cisplatin. The cisplatin dosing level was the chemotherapeutic level used in humans, 40 ug/kg bw. The end points were the level of creatinine in serum and kidney histology. The positive control used was 250 ug/kg bw of the mature form of recombinant human BMP-7 (rhmBMP-7).
A stock solution (70 mg/ml) of the test article (SEQ ID #45) was made by dissolving it in 20 mM Acetate (ph 4.2). The stock solution was further diluted into phosphate buffered saline (PBS, pH 7.2) plus 5% Mannitol to compound concentrations of 14 mg/ml (28 mg/kg dose), 1.4 mg/ml (2.8 mg/kg dose) and 0.14 mg/ml (0.28 mg/kg dose).
Cisplatin was administered via i.p. injection (40 ug/kg bw) at time zero. Administration of therapeutic dosing of the compound, the rhmBMP-7 positive control and vehicle negative control were by slow bolus i.v. injection through the tail vein at five time points: 2 hours before the administration of cisplatin, then at 24 hours, 48 hours, 72 hours and 96 hours post cisplatin administration. Blood samples were collected through the tail vein at time points of 0, 24, 48, 72 and 96 hours. At seven day sample was collected by exsanguination at sacrifice. Serum was prepared from the blood samples and analyzed for creatinine concentration. The serum concentration of creatinine, a byproduct of muscle activity that is released into the blood stream and cleared through the kidneys, is a marker of kidney function that tends to rise when kidney function becomes severely compromised (FIG. 18).
Upon sacrifice at seven days, the kidneys were harvested, fixed in formalin and imbedded in paraffin. They were then sagitally sectioned and stained in H&E stain. Kidney sections were also stained with anti-bodies against proliferating cell nuclear antigen (PCNA) (to identify sites of cell regeneration), macrophages, ICAM-1, and smooth muscle. Also collected at sacrifice were tissues at and around the injection site (FIG. 19A-FIG. 19B).

In the case of CYFDDSSNVLCKKYRS [SEQ ID NO 45], the Smad1 translocation (Smad1) was “Smad1 Translocation”, the renal interstitial fibrosis [1] was “effectively reversed renal interstitial fibrosis” and the renal fibrosis [2] was “significantly attenuated progression of renal fibrosis”. For the same sequence, the “cisplatin-induced inflammation of the kidney cortex” value ([3]; 2.8 mg/kg bw) was “significantly reduced”, the ICAM-1 release ([3]; 2.8 mg/kg bw, kidney sections) was “reduced” and the “degree of cellular regeneration (PCNA)” value ([3]; 2.8 mg/kg bw, kidney sections) was “increased”. The macrophage infiltration ([3]; 2.8 mg/kg bw, kidney sections) was “reduced”, the smooth muscle loss ([3]; 2.8 mg/kg bw, kidney sections) was “reduced” and the “cisplatin-induced level of creatinine in serum” value ([3]; 0.28, 2.8 and 28 mg/kg bw i.v.) was “reduces the cisplatin-induced level of creatinine in serum”. The “reduction of serum creatinine rise following cisplatin, versus positive control” value ([3]; highest dose (28 mg/kg), positive control rhmBMP-7) was “more efficacious than the positive control” and the “nephrotoxic effects of cisplatin exposure” value ([3]; rat, in vivo) was “can reduce or ameliorate the nephrotoxic effects of cisplatin exposure”.
